“And” between values parts separate entries of the source, which are not always exact repeats. Identical values can stand only once.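 Each compound was tested at five concentrations against cells in 96-well plates for 48 hours. GI50 marks 50% less growth. The concentration for full growth arrest is given as TGI.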
What was measured:
Test in all cases: NCI-60 cell line screen, 48 h
A549 NSCLC = tested on: A549 NSCLC
ACHN renal = tested on: ACHN renal
COLO 205 colon = tested on: COLO 205 colon
HCT-116 colon = tested on: HCT-116 colon
HOP-92 NSCLC = tested on: HOP-92 NSCLC
KM12 colon = tested on: KM12 colon
OVCAR-4 ovarian = tested on: OVCAR-4 ovarian
SK-MEL-5 melanoma = tested on: SK-MEL-5 melanoma
SN12C renal = tested on: SN12C renal
UACC-62 melanoma = tested on: UACC-62 melanoma

Compound | TGI (A549 NSCLC) | TGI (ACHN renal) | TGI (COLO 205 colon) [µM] | TGI (HCT-116 colon) | TGI (HOP-92 NSCLC) | TGI (KM12 colon) | TGI (OVCAR-4 ovarian) | TGI (SK-MEL-5 melanoma) | TGI (SN12C renal) | TGI (UACC-62 melanoma) | GI50 (A549 NSCLC) | GI50 (ACHN renal) | GI50 (COLO 205 colon) | GI50 (HCT-116 colon) | GI50 (HOP-92 NSCLC) | GI50 (KM12 colon) | GI50 (OVCAR-4 ovarian) | GI50 (SK-MEL-5 melanoma) | GI50 (SN12C renal) | GI50 (UACC-62 melanoma)
Cc1ccc(/C=N/NS(=O)(=O)c2ccccc2)cc1 | > 100 µM | > 100 µM | > 100 | > 100 µM | > 100 µM | > 100 µM | > 100 µM | > 100 µM | > 100 µM | > 100 µM |  |  |  |  |  |  |  |  |  | 
NC(=O)c1ccc2nc(-c3ccc(C4(N)CCC4)cc3)c(-c3ccccc3)n2n1 | 28.5 µM | 20.8 µM | 19 | 22.6 µM | 14.1 µM | 25.3 µM | 44.6 µM | 23.3 µM | 27.5 µM | 22.7 µM | 11.7 µM | 5.97 µM | 0.976 µM | 10.2 µM | 0.815 µM | 10.5 µM | 16 µM | 10.9 µM | 12 µM | 10.3 µM
COc1cc(-c2nc3ccccc3[nH]2)ccc1OCC(=O)N=Nc1c(O)[nH]c2ccc(Cl)cc12 | > 100 µM | > 100 µM | 3.79 | 1.53 µM | 3.07 µM | 3.24 µM | 3.54 µM | 3.2 µM | 3.06 µM | 3.18 µM | 3.72 µM | 4.75 µM | 1.89 µM | 0.4 µM | 1.5 µM | 1.41 µM | 2.02 µM | 1.72 µM | 1.61 µM | 1.72 µM
Cc1coc2c1CC1OC1(C)CCC1OC1(C)C2 (centres undefined) | > 100 µM | > 100 µM | > 100 | > 100 µM | > 100 µM | > 100 µM | > 100 µM | > 100 µM | > 100 µM | > 100 µM |  |  |  |  |  |  |  |  |  | 
COc1ccc2c(c1)CC[C@@H]1[C@@H]2CC[C@]2(C)c3[nH]ncc3C[C@@H]12 | > 50 µM | > 50 µM | > 50 | 31.9 µM | > 50 µM | 21.6 µM | > 50 µM | 16.4 µM | > 50 µM | > 50 µM | 15.2 µM | 19 µM | 14.5 µM | 12.3 µM | 14.4 µM | 10.1 µM | 15.4 µM | 8.16 µM | 18 µM | 17.2 µM
COc1ccc(S(=O)(=O)NC2=NCCN2C(=S)SN2CCn3c2nsc3=S)cc1OC | > 100 µM | > 100 µM | 29 | 40 µM | 48.6 µM | 52 µM | 34.8 µM | 74.1 µM | 54.9 µM | 38 µM | 27.9 µM | 28.9 µM | 12.5 µM | 19.2 µM | 23.2 µM | 21.2 µM | 16 µM | 25.3 µM | 22.6 µM | 16.3 µM
NC1=NN(c2ccccc2)C(=O)C1/C(=N\NC(=O)c1cc2ccccc2cc1O)C(=O)Nc1nc([N+](=O)[O-])cs1 (centres undefined) | > 100 µM | > 100 µM | 54.8 | > 87.9 µM | 87.5 µM | > 80 µM | > 100 µM | 48.9 µM | > 100 µM | 56.6 µM |  |  |  |  |  |  |  |  |  | 
CCc1nc(-n2c(CC)nc3ccccc3c2=O)nc(N)c1-c1ccc(Cl)cc1 | > 100 µM | > 100 µM | > 79.3 | > 100 µM | 99.9 µM | > 100 µM | > 100 µM | > 100 µM | > 100 µM | > 100 µM | 2.38 µM | > 27.1 µM | 19.3 µM | > 26.2 µM | 18 µM | 38.5 µM | > 100 µM | 6.84 µM | > 46.1 µM | 5.46 µM
COc1ccccc1-c1ccc2nc(NC(=O)Nc3cc(C(F)(F)F)cc(C(F)(F)F)c3)sc2c1 | 11.8 µM | 7.71 µM | 3.92 | 2.45 µM | 4.31 µM | 6.45 µM | 9.96 µM | 2.98 µM | 3.36 µM | 3.26 µM | 3.19 µM | 2.14 µM | 1.65 µM | 1.07 µM | 1.19 µM | 2.07 µM | 2.12 µM | 1.57 µM | 1.7 µM | 1.56 µM
Cc1cc(Nc2cc(CN3CCOCC3)c3nc(C)c(Cc4ccc(Cl)cc4F)n3n2)n[nH]1 | 6.16 µM | 10.9 µM | 2.01 | 2.65 µM | 5.01 µM | 5.6 µM | 16.7 µM | 8.72 µM | 15.9 µM | 11.3 µM | 0.919 µM | 1.63 µM | 0.684 µM | 0.689 µM | 1.65 µM | 0.0481 µM | 2.85 µM | 2.27 µM | 1.14 µM | 2.36 µM
COc1cc(/C=C/C(=O)NC[C@]2(O)CCC3C4CCc5cc(O)ccc5C4CCC32C)ccc1O (some centres undefined) | > 100 µM | > 100 µM | 64.5 | 49.3 µM | > 100 µM | 36 µM | > 100 µM | 19.3 µM | > 100 µM | > 100 µM | 7.64 µM | 9.05 µM | 13.4 µM | 7.97 µM | 21.8 µM | 5.68 µM | 7.49 µM | 2.91 µM | 25.4 µM | 16.8 µM
O=C1c2ccccc2C(=O)c2c(NC(=O)C(Cl)CCl)cccc21 (centres undefined) | 47.6 µM | 29 µM | 26.9 | 28.4 µM | 9.82 µM | 8.26 µM | 23.3 µM | 28.1 µM | 21.4 µM | 33.9 µM |  |  |  |  |  |  |  |  |  | 
[C-]#[O+].[C-]#[O+].[Ir].[O-]c1ccc2ccccc2c1N=Nc1ccccc1 | 70.1 µM | 13.8 µM | 3.7 | 24.7 µM | 32.4 µM | > 44.1 µM | 24.7 µM | 28.7 µM | 23.9 µM | 29.2 µM |  |  |  |  |  | 13 µM |  |  |  | 
COc1ccc(-c2ccc3ncc4c(c3c2)n(-c2ccc(N3CCNCC3)c(C(F)(F)F)c2)c(=O)n4C)cn1 | 0.153 µM and 0.329 µM | 1.1 µM and 0.782 µM |  | 0.165 µM and 0.142 µM | 0.0219 µM and 0.0155 µM | 0.694 µM and 0.406 µM | 0.0207 µM and 0.0252 µM | 0.0774 µM and 0.038 µM | 1.56 µM and 0.381 µM | 0.0269 µM and 0.0286 µM | < 0.01 µM and 0.00607 µM | < 0.01 µM and 0.00959 µM | < 0.01 µM and 0.00994 µM | < 0.0143 µM and 0.00853 µM | < 0.01 µM and 0.00146 µM | < 0.01 µM and 0.0117 µM | < 0.01 µM and 0.0029 µM | 0.0131 µM and 0.0102 µM | < 0.0112 µM and 0.00382 µM | < 0.01 µM and 0.00599 µM
O=C(c1ccco1)c1ccccc1C(=O)c1ccco1 | > 100 µM | > 100 µM | > 100 | > 100 µM | > 100 µM | > 100 µM | > 100 µM | > 100 µM | > 100 µM | > 100 µM |  |  |  |  |  |  |  |  |  | 
COc1cccc2c1C(=O)c1c(O)c3c(c(O)c1C2=O)C[C@@](O)(C(=O)CO)C[C@@H]3OC1CC(OC(C)=O)C(OC(C)=O)C(C)O1 (some centres undefined) | 2.77 µM | 1.44 µM | 4.45 | 1.89 µM |  | 3.74 µM | > 39.6 µM | 1.67 µM | 5.87 µM | 1.89 µM | 0.41 µM | 0.152 µM | 0.801 µM | 0.279 µM | 0.239 µM | 0.549 µM | 2.24 µM | 0.249 µM | 0.255 µM | 0.23 µM
COc1ccc(N2CCN(CN3CCN(c4ccc(OC)cc4)C3)C2)cc1 | > 100 µM | 96.9 µM | > 100 | 50 µM | > 100 µM | > 100 µM | > 100 µM | > 100 µM | > 100 µM | > 100 µM | > 100 µM | 33.5 µM | > 100 µM | 20.2 µM | 57.9 µM | > 100 µM | > 100 µM | > 100 µM | > 100 µM | > 100 µM

Reference: PubChem BioAssay (NCI)
